Results reported in PubChem BioAssay AID328 (DTP/NCI, 2004).
Toxic doses and inconclusive results are not listed. Rule for the calls: active = survival T/C of 150% or more; inactive = T/C below 125% in these data.

Tested on: BDF1 mice, P388 leukemia ip, median survival T/C
Experiment: NCI In Vivo Anticancer Drug Screen. Data for tumor model P388 Leukemia (intraperitoneal) in B6D2F1 (BDF1) mice
Settings: endpoint: median survival time, higher = longer survival
How it was run: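 In tumour-bearing mice, survival after compound treatment is set against the vehicle group and given as a quotient.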

[1] = dose: 100.0 mg/kg/injection, schedule: Q01DX009 (ip), vehicle: Klucel (hydroxypropylcellulose) (HPC)

Measured: T/C

CC(C)(C)OC(=O)NC(CCSCC(=O)O)C(N)=O (centres undefined)
inactive: dose: 50.0 mg/kg/injection, schedule: Q01DX009 (ip), vehicle: saline 91 % of control | dose: 100.0 mg/kg/injection, schedule: Q01DX009 (ip), vehicle: saline 88 % of control | dose: 200.0 mg/kg/injection, schedule: Q01DX009 (ip), vehicle: saline 95 % of control

COS(C)(=O)=O
inactive: dose: 12.5 mg/kg/injection, schedule: Q01DX010 (ip), vehicle: saline 100 % of control | dose: 25.0 mg/kg/injection, schedule: Q01DX010 (ip), vehicle: saline 104 % of control | dose: 50.0 mg/kg/injection, schedule: Q01DX010 (ip), vehicle: saline 108 % of control

CCC(C#N)(c1ccccc1)c1ccccc1
inactive: [1] 90 % of control | dose: 100.0 mg/kg/injection, schedule: Q04DX003 (ip), vehicle: Klucel (hydroxypropylcellulose) (HPC) 95 % of control | dose: 200.0 mg/kg/injection, schedule: Q04DX003 (ip), vehicle: Klucel (hydroxypropylcellulose) (HPC) 95 % of control | dose: 400.0 mg/kg/injection, schedule: Q01DX009 (ip), vehicle: Klucel (hydroxypropylcellulose) (HPC) 100 % of control | dose: 400.0 mg/kg/injection, schedule: Q04DX003 (ip), vehicle: Klucel (hydroxypropylcellulose) (HPC) 100 % of control

C1CC[N-]CC1.C1CC[N-]CC1.C1CC[N-]CC1.C1CC[N-]CC1.N#C[S-].N#C[S-].[Ni]
inactive: dose: 5.0 mg/kg/injection, schedule: Q01DX009 (ip), vehicle: saline with Tween-80 100 % of control | dose: 10.0 mg/kg/injection, schedule: Q01DX009 (ip), vehicle: saline with Tween-80 100 % of control | dose: 20.0 mg/kg/injection, schedule: Q01DX009 (ip), vehicle: saline with Tween-80 108 % of control

COc1ccc2c(Cc3ccccc3)cncc2c1O
inactive: dose: 6.25 mg/kg/injection, schedule: Q01DX009 (ip), vehicle: Klucel (hydroxypropylcellulose) (HPC) 99 % of control | dose: 12.5 mg/kg/injection, schedule: Q01DX009 (ip), vehicle: Klucel (hydroxypropylcellulose) (HPC) 100 % of control | dose: 25.0 mg/kg/injection, schedule: Q01DX009 (ip), vehicle: Klucel (hydroxypropylcellulose) (HPC) 105 % of control | dose: 50.0 mg/kg/injection, schedule: Q01DX009 (ip), vehicle: Klucel (hydroxypropylcellulose) (HPC) 108 % of control | [1] 117 % of control

C=C(CNC(C)(C)C)C(=O)c1ccccc1
inactive: dose: 3.13 mg/kg/injection, schedule: Q01DX009 (ip), vehicle: saline 116 % of control | dose: 6.25 mg/kg/injection, schedule: Q01DX009 (ip), vehicle: saline 116 % of control

Cc1nc(C(N)=O)c(=O)[nH]c1C
inactive: dose: 6.25 mg/kg/injection, schedule: Q04DX003 (ip), vehicle: saline 104 % of control | dose: 12.5 mg/kg/injection, schedule: Q04DX003 (ip), vehicle: saline 109 % of control | dose: 25.0 mg/kg/injection, schedule: Q04DX003 (ip), vehicle: saline 100 % of control | dose: 50.0 mg/kg/injection, schedule: Q04DX003 (ip), vehicle: saline 88 % of control | dose: 100.0 mg/kg/injection, schedule: Q04DX003 (ip), vehicle: saline sonified 104 % of control | dose: 200.0 mg/kg/injection, schedule: Q04DX003 (ip), vehicle: saline sonified 104 % of control

CC(=O)OCC1OC(N)C(OC(C)=O)C(OC(C)=O)C1OC(C)=O (centres undefined)
inactive: dose: 50.0 mg/kg/injection, schedule: Q01DX009 (ip), vehicle: saline with Tween-80 97 % of control | dose: 100.0 mg/kg/injection, schedule: Q01DX009 (ip), vehicle: saline with Tween-80 92 % of control | dose: 200.0 mg/kg/injection, schedule: Q01DX009 (ip), vehicle: saline with Tween-80 96 % of control

CC(=O)Nc1ccc(S(=O)(=O)N/N=C\c2ccc(Cl)c(Cl)c2)cc1
inactive: dose: 6.25 mg/kg/injection, schedule: Q01DX009 (ip), vehicle: saline with Tween-80 99 % of control | dose: 12.5 mg/kg/injection, schedule: Q01DX009 (ip), vehicle: saline with Tween-80 98 % of control | dose: 25.0 mg/kg/injection, schedule: Q01DX009 (ip), vehicle: saline with Tween-80 96 % of control

C(=N\N=C\c1c[nH]c2ccccc12)/c1c[nH]c2ccccc12
inactive: dose: 100.0 mg/kg/injection, schedule: Q01DX009 (ip), vehicle: gum acacia 89 % of control | dose: 100.0 mg/kg/injection, schedule: Q04DX003 (ip), vehicle: gum acacia 108 % of control | dose: 200.0 mg/kg/injection, schedule: Q01DX009 (ip), vehicle: gum acacia 89 % of control | dose: 200.0 mg/kg/injection, schedule: Q04DX003 (ip), vehicle: gum acacia 95 % of control | dose: 400.0 mg/kg/injection, schedule: Q01DX009 (ip), vehicle: gum acacia 96 % of control | dose: 400.0 mg/kg/injection, schedule: Q04DX003 (ip), vehicle: gum acacia 100 % of control
